Experimental data taken from patent US6828327B2, “Macroheterocylic compounds useful as kinase inhibitors” (Ortho-McNeil Pharmaceutical, Inc., priority 2000, dated 2004).

Tests used:
PKC-γ = molecular target: T1, PKC-γ (Homo sapiens, UniProt P05129); assay: Protein Kinase C Scintillation Proximity Assay (SPA), PKC-γ; assay type: biochemical; settings: inhibition value, recombinant human isozyme, 1 μM ATP
T1 construct: purchased PanVera, Madison Wis; host or cells: baculovirus expression vector
Procedure: (§1) The binding activity of a compound for Protein Kinase C (PKC) was assessed using a homogeneous Scintillation Proximity Assay according to the procedure below.
(§2) The different human PKC isozymes (were obtained from PanVera, Madison Wis. and had been prepared as recombinant enzymes produced from a baculovirus expression vector) were added to a reaction mixture containing a test compound, 20 mM HEPES (pH 7.4), 100 μM CaCl2, 10 mM MgCl2, 100 μg/mL phosphatidylserine, 20 μg/mL diacylglycerol, 1 μM ATP, 0.8 μCi (^33P)ATP, and 5 μg/mL biotinylated substrate peptide (Jing Zhao et al., J. Bio. Chem., 1998, 273, 23072). The reaction was incubated for 15 min at 30° C. Reactions were terminated by the addition of streptavidin-coated SPA beads (Amersham) in a solution containing 1 mM EGTA, 10 mM EDTA and 100 μM ATP. Beads were allowed to settle overnight and the plates read in a Wallac MICROBETA scintillation counter (PerkinElmer Life sciences, Wellesley, Mass.).
(§3) Values for inhibition of various PKC isozymes and GSK 3-β by certain compounds of the invention tested in the PKC SPA and GSK 3-β assays are shown in Table 1.

GSK 3-β = molecular target: T2, GSK 3-β (Oryctolagus cuniculus, UniProt G1T8E2); assay: Glycogen Synthase Kinase 3-β Assay; assay type: biochemical, rabbit; settings: for IC50: inhibition value, recombinant rabbit GSK 3-β, PPI-2 substrate; for GSK 3-β % @ 1 μM: at 1 μM; for GSK 3-β % @ 0.1 μM: at 0.1 μM
T2 construct: purchased New England Biolabs, Beverly Mass
T2 sequence (G1T8E2 1-432): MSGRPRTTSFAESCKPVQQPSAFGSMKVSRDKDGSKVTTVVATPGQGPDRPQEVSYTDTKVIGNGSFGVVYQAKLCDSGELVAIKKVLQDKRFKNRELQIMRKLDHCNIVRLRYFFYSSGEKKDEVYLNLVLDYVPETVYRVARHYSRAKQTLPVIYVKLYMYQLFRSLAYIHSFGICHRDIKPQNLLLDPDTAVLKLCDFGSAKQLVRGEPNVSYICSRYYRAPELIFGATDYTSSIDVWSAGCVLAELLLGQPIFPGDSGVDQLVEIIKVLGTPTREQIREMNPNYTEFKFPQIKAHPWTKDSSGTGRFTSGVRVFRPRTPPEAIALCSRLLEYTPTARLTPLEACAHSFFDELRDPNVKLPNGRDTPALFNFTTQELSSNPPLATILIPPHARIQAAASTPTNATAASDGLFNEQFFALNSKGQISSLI
Procedure: The inhibitory activity of a compound against Glycogen Synthase Kinase 3-β (GSK 3-β) activity was assessed using a recombinant rabbit GSK 3-β according to the procedure below.
The mixture was reacted for 90 minutes at 30° C. to allow phosphorylation of the PPI-2 protein and then the protein in the reaction was precipitated using 10% trichloroacetic acid (TCA). The precipitated protein was collected on filter plates (MultiScreen-DV, Millipore, Bedford Mass.), which were subsequently washed. Finally, the radioactivity was quantified using a TopCount Scintillation Counter (Packard, Meridian Conn.). […] Staurosporine or Valproate (both available from several commercial sources), known inhibitors of GSK-3-β, were used as a positive control for screening.

PKC α = PKC α (Homo sapiens, UniProt P17252); assay: Protein Kinase C Scintillation Proximity Assay (SPA), PKC-α; assay type: biochemical; parameters: purchased PanVera, Madison Wis; host or cells: baculovirus expression vector; settings: inhibition value, recombinant human isozyme, 1 μM ATP
Procedure: as §1
The reaction was incubated for 15 min at 30° C. Reactions were terminated by the addition of streptavidin-coated SPA beads (Amersham) in a solution containing 1 mM EGTA, 10 mM EDTA and 100 μM ATP. Beads were allowed to settle overnight and the plates read in a Wallac MICROBETA scintillation counter (PerkinElmer Life sciences, Wellesley, Mass.).

PKC-βII = molecular target: T3, PKC-βII (Homo sapiens, UniProt P05771); assay: Protein Kinase C Scintillation Proximity Assay (SPA), PKC-βII; assay type: biochemical; settings: inhibition value, recombinant human isozyme, 1 μM ATP
T3 construct: purchased PanVera, Madison Wis; host or cells: baculovirus expression vector
T3 sequence (P05771 1-673 isoform P05771-2): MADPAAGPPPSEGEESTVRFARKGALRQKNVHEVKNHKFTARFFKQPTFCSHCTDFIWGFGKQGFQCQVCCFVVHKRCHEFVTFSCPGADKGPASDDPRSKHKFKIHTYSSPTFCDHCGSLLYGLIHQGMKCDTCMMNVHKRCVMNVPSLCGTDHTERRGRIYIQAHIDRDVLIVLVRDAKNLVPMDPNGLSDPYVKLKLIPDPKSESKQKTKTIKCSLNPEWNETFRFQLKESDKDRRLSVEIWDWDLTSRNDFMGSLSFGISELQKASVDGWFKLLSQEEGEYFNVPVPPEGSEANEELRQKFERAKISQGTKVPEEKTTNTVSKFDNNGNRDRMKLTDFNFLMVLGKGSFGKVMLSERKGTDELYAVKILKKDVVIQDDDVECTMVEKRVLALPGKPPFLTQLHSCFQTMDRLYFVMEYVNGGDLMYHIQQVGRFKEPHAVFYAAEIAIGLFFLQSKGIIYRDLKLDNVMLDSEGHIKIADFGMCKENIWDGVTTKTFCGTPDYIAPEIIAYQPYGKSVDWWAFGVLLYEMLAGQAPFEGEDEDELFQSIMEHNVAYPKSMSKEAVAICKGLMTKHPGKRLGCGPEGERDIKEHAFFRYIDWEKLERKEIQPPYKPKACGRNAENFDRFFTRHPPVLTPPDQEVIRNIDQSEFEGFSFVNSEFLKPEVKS
Procedure: as §1, §2, §3

PKC-βI = molecular target: T4, PKC-βI (Homo sapiens, UniProt P05771); assay: Protein Kinase C Scintillation Proximity Assay (SPA), PKC-βI; assay type: biochemical; settings: inhibition value, recombinant human isozyme, 1 μM ATP
T4 construct: purchased PanVera, Madison Wis; host or cells: baculovirus expression vector
T4 sequence (P05771 whole entry): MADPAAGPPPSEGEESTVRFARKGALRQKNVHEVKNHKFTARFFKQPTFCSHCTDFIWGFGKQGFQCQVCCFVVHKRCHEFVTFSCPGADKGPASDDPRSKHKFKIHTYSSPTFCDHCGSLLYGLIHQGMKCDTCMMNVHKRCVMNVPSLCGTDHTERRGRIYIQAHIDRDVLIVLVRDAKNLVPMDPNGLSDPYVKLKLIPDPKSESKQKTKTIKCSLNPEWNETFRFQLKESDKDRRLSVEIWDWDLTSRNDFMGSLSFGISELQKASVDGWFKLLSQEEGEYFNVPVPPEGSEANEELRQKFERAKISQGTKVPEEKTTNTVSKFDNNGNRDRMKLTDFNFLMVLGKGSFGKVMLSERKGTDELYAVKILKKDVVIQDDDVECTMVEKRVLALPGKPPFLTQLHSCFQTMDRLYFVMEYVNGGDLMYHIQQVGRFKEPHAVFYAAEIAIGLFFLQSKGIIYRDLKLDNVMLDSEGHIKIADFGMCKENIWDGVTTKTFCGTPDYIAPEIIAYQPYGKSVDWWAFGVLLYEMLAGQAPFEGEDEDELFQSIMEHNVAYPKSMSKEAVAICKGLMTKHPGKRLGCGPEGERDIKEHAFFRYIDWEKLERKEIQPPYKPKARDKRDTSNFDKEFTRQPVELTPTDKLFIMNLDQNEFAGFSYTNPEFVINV
Procedure: as §1, §2, §3

L6 muscle cells = assay: Cell-Based GSK 3-β Assay (glycogen content of L6 muscle cells); settings: for 14C-Glucose Incorporation (dpm): L6 cells, 2 hours
Procedure: Glycogen content of L6 muscle cells was measured according to the method described in Berger and Hayes, Anal. Biochem., 1998, 261, 159-163.
Briefly, L6 cells were serum starved overnight in alpha-MEM containing 0.1%. On the following day, cells were washed three times with 300 μL KRPH buffer (150 mM NaCl, 5 mM KCl, 2.9 mM Na2HPO4, 1.25 mM MgSO4, 1.2 mM CaCl2, 10 mM HEPES, pH 7.4) and labeled with 200 μL alpha-MEM containing 5.5 mM ^14C-Glucose (0.1 μCi) in the presence of vehicle (DMSO) or compounds. After 2 hours, cells were washed three times with ice-cold PBS and glycogen was precipitated for 2 hours using ice-cold 66% EtOH. Precipitated glycogen was then washed three times with ice-cold 66% EtOH and ^14C-glycogen was quantified using a TopCount (Packard).
Compounds were tested in separate experiments at the dose levels shown. Where shown, the 0.0 μM dose was used as a control.

SMILES	IC50 (PKC-γ) [nM]	IC50 (GSK 3-β) [nM]	IC50 (PKC α) [nM]	IC50 (PKC-βII) [nM]	also measured
O=C1NC(=O)C2=C1c1cn(c3ncccc13)C[C@H](O)CCCCCC[C@@H](O)Cn1cc2c2cccnc21 [Cpd 27]		1180			
O=C1NC(=O)C2=C1c1cn(c3ncccc13)CCOCCOCCn1cc2c2cccnc21 [Cpd 28]					GSK 3-β % @ 0.5 μM (GSK 3-β; at 0.5 μM): 48% @ 0.5 μM
O=C1NC(=O)C2=C1c1cn(c3ccccc13)Cc1cccc(c1)Cn1cc2c2cccnc21 [Cpd 8]	783	233	1530	288	IC50 (PKC-βI): 1780 nM
O=C1NC(=O)C2=C1c1cn(c3ncccc13)CCOCCSCCOCCn1cc2c2cccnc21 [Cpd 19]		110			
CN1CCCn2cc(c3ccccc32)C2=C(C(=O)NC2=O)c2cn(c3ccccc23)CCOCCOCC1 [Cpd 31]	24		14	7	
CCN1CCOCCn2cc(c3cccnc32)C2=C(C(=O)NC2=O)c2cn(c3ncccc23)CCOCC1 [Cpd 18]		9200			
O=C1NC(=O)C2=C1c1cn(c3ncccc13)CCCCc1cccc(n1)CCCCn1cc2c2cccnc21 [Cpd 24]		210			
CCN1CCOCCn2cc(c3ccccc32)C2=C(C(=O)NC2=O)c2nn(c3ccccc23)CCOCC1 [Cpd 17]				385	GSK 3-β % @ 0.2 μM (GSK 3-β; at 0.2 μM): 31% @ 0.2 μM
CCN1CCCCCn2cc(c3cccnc32)C2=C(C(=O)NC2=O)c2cn(c3ncccc23)CCCCC1 [Cpd 21]		1440			
O=C1NC(=O)C2=C1c1cn(c3ccccc13)CCOCCOCCn1cc2c2ccccc21 [Cpd 4]	3460	102	1220	99	IC50 (PKC-βI): 1590 nM
CCN1CCCCCn2cc(c3cccnc32)C2=C(C(=O)NC2=O)c2cn(c3ncccc23)CCCC1 [Cpd 23]					GSK 3-β % @ 1 μM (GSK 3-β): 46% @ 1 μM
COCCN1CCOCCn2cc(c3ccccc32)C2=C(C(=O)NC2=O)c2nn(c3ccccc23)CCOCC1 [Cpd 29]				369	GSK 3-β % @ 0.1 μM (GSK 3-β): 30% @ 0.1 μM
O=C1NC(=O)C2=C1c1cn(c3ccccc13)Cc1cccc(n1)Cn1cc2c2cccnc21 [Cpd 9]	228	164	319	35	IC50 (PKC-βI): 338 nM
CN1CCOCCn2cc(c3ccccc32)C2=C(C(=O)NC2=O)c2nn(c3ccccc23)CCOCC1 [Cpd 16]				63	GSK 3-β % @ 0.1 μM (GSK 3-β): 37% @ 0.1 μM
O=C1NC(=O)C2=C1c1cn(c3ncccc13)CCCCCNCCCCn1cc2c2cccnc21 [Cpd 22]					GSK 3-β % @ 1 μM (GSK 3-β): 30% @ 1 μM
CN1CCOCCn2cc(c3ccccc32)C2=C(C(=O)NC2=O)c2cn(c3ccccc23)CCOCC1 [Cpd 13]	370		50	40	
O=C1NC(=O)C2=C1c1cn(c3ncccc13)CCCCCNCCCCCn1cc2c2cccnc21 [Cpd 20]		610			

More lines, main results first:

IC50 (PKC-γ) [nM]	IC50 (GSK 3-β) [nM]	IC50 (PKC α) [nM]	IC50 (PKC-βII) [nM]	SMILES	also measured
150	33	20	8	CCN1CCOCCn2cc(c3ccccc32)C2=C(C(=O)NC2=O)c2cn(c3ccccc23)CCOCC1 [Cpd 12]	
> 100000	33	> 100000	> 100000	O=C1NC(=O)C2=C1c1cn(c3ncccc13)CCOCCOCCOCCOCCOCCn1cc2c2cccnc21 [Cpd 3]	IC50 (PKC-βI): > 100000 nM
3260	33	2590	285	O=C1NC(=O)C2=C1c1cn(c3ccccc13)CCOCCOCCOCCOCCOCCn1cc2c2ccccc21 [Cpd 7]	IC50 (PKC-βI): 3070 nM
22	93	42	27	CN1CCN(C)CCn2cc(c3ccccc32)C2=C(C(=O)NC2=O)c2cn(c3ccccc23)CCN(C)CC1 [Cpd 15]	
1350	49	412	16	O=C1NC(=O)C2=C1c1cn(c3ccccc13)CCOCCOCCOCCn1cc2c2ccccc21 [Cpd 5]	14C-Glucose Incorporation (dpm) (L6 muscle cells; dose 0.01 μM): 2884 dpm; 14C-Glucose Incorporation (dpm) (L6 muscle cells; dose 0.1 μM): 2988 dpm; 14C-Glucose Incorporation (dpm) (L6 muscle cells; dose 0.3 μM): 3339 dpm; 14C-Glucose Incorporation (dpm) (L6 muscle cells; dose 3 μM, 0.0 μM control Cpd 1 1640, Cpd 2 2078): 3438 dpm; 14C-Glucose Incorporation (dpm) (L6 muscle cells; dose 10 μM, 0.0 μM control Cpd 1 1640, Cpd 2 2078): 4700 dpm; glycogen synthesis in L6 skeletal muscle cells (L6 muscle cells; upon exposure to compound, result in words): increased glycogen synthesis; IC50 (PKC-βI): 349 nM
4000	45	2560	212	O=C1NC(=O)C2=C1c1cn(c3ccccc13)CCOCCOCCOCCOCCn1cc2c2ccccc21 [Cpd 6]	IC50 (PKC-βI): 1480 nM
	90			O=C1CCCCn2cc(c3cccnc32)C2=C(C(=O)NC2=O)c2cn(c3ncccc23)CCCC1 [Cpd 26]	
	64		11	O=C1NC(=O)C2=C1c1cn(c3ccccc13)CCOCCN(CCO)CCOCCn1cc2c2ccccc21 [Cpd 30]	
	80			O=C1CCCCCCn2cc(c3cccnc32)C2=C(C(=O)NC2=O)c2cn(c3ncccc23)CCCC1 [Cpd 25]	
34	76	19	15	CC(C)N1CCOCCn2cc(c3ccccc32)C2=C(C(=O)NC2=O)c2cn(c3ccccc23)CCOCC1 [Cpd 14]	
